This passage reports AC50, IC50 and EC50 results from ChEMBL document CHEMBL1201862, “PubChem BioAssay data set” (2004).

In one assay the target is Trypsin (Sus scrofa, UniProt P00761). The assay can be described thus: trypsin protease activity blockade – biochemical, quenched peptide fluorescence, cherry-pick, selectivity assay for Rce1 protease inhibitor project, dose response (AID 488789).
For the next assay, the system named is MDA-MB-435. The assay can be described thus: cells. Type of assay: functional, cell-based. Conditions: Homo sapiens.
A further assay in a line: cells. Type of assay: functional, cell-based. The conditions noted are these: PPC-1.
Assay [1] concerns HEK293. The assay can be described thus: PMA/Ionomycin induced NF-kB luciferase assay in 293- NF-kB-Luc stable cells. [Related pubchem assays: 1299, 1270, 1295, 1375, 1287, 1281, 1293, 1291, 1289, 1280, 465, 1364, 1282, 1372, 1365, 1370, 1367, 1366, 1269, 1373, 1292, 1290, 1302, 1371, 1283, 1271, 1294, 1374, 1368, 1369 ]. Conditions: Homo sapiens. Type of assay: functional, cell-based.

The target in assay [2] is Luciferin 4-monooxygenase (Photinus pyralis, UniProt P08659). The assay can be described thus: In vitro luciferase assay using purified luciferase. [Related pubchem assays: 1299, 1270, 1295, 1375, 1287, 1281, 1293, 1291, 1289, 1280, 465, 1364, 1282, 1372, 1365, 1370, 1367, 1366, 1266, 1373, 1292, 1290, 1302, 1371, 1283, 1271, 1294, 1374, 1368, 1369 ].
Chain of Luciferin 4-monooxygenase (P08659 whole entry): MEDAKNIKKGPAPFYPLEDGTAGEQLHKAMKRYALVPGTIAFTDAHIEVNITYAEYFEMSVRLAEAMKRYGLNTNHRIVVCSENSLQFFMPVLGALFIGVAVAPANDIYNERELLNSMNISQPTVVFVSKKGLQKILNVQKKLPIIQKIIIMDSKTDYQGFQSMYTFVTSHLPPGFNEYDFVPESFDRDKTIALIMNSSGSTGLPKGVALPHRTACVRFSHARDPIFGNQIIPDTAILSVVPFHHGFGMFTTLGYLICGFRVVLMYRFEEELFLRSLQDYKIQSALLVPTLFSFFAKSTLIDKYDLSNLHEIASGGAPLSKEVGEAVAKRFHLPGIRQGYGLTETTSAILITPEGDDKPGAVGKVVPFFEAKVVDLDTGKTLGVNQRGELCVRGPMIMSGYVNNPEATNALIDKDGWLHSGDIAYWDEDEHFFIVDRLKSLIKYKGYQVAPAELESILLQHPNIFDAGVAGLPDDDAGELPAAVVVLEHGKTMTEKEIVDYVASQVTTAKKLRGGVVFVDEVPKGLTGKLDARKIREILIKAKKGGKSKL
Assay [3] concerns HEK293. The assay can be described thus: Cytotoxicity assay in HEK293 cells. [Related pubchem assays (depositor defined):AID1266, AID1269, AID1270, AID1271, AID1280, AID1281, AID1282, AID1283, AID1287, AID1289, AID1290, AID1291, AID1292, AID1293, AID1294, AID1295, AID1299, AID1302, AID1364, AID1365, AID1366, AID1367, AID1369, AID1370, AID1371, AID1372, AID1373, AID1374, AID1375, AID1384 …. Type of assay: functional, cell-based. The conditions noted are these: Homo sapiens.

The subject of assay [4] is HEK293. The assay can be described thus: TNF Induced NF-kB Luciferase in 293-NF-kB-Luc Stable Cells. [Related pubchem assays: 1266, 1299, 1269, 1373, 1292, 1290, 1302, 1371, 1283, 1270, 1295, 1271, 1375, 1294, 1374, 1281, 1293, 1291, 1289, 1280, 465, 1368, 1364, 1282, 1372, 1365, 1369, 1370, 1367, 1366 ]. Type of assay: functional, cell-based. The conditions noted are these: Homo sapiens.

The subject of assay [5] is HEK293. The assay can be described thus: EBV LMP1 TES2 canonical NF-kB signalling blockers – cell-based, HEK293, luciferase, cherry-pick, dose response (AID 588343). It is filed as functional. The conditions noted are these: Homo sapiens.
Assay [6] concerns the target T1, Replicative DNA helicase DnaB (Mycobacterium tuberculosis, UniProt P9WMR3).
T1 sequence (P9WMR3 whole entry): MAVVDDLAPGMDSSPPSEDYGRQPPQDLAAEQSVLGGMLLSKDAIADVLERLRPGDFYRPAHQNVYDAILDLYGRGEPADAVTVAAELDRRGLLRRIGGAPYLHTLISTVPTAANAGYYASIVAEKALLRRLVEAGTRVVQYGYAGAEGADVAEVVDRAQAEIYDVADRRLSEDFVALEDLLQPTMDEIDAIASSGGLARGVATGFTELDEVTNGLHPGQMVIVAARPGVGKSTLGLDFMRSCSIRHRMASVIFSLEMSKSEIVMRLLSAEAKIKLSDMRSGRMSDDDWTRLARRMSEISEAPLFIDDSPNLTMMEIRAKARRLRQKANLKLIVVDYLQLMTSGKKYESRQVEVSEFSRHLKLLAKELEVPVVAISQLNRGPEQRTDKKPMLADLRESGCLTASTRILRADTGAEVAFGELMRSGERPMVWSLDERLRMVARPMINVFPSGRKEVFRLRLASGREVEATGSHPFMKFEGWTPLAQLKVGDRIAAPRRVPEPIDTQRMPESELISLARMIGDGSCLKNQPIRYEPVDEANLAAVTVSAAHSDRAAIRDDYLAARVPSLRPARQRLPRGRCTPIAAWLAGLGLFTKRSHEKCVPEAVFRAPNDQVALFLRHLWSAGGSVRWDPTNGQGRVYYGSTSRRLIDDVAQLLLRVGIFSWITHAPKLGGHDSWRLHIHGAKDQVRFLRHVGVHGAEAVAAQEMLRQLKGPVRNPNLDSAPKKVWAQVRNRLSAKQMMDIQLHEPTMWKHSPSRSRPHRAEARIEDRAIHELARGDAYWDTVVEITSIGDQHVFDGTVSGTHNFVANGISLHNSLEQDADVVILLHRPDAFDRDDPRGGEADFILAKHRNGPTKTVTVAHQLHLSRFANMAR
The assay can be described thus: DnaB intein splicing inhibitors, dose response, biochemical, cell-free fluorescence (AID 449749). Type of assay: functional.

The next assay deals with T2, Protein RecA (Mycobacterium tuberculosis, UniProt P9WHJ3).
T2 sequence (P9WHJ3 whole entry): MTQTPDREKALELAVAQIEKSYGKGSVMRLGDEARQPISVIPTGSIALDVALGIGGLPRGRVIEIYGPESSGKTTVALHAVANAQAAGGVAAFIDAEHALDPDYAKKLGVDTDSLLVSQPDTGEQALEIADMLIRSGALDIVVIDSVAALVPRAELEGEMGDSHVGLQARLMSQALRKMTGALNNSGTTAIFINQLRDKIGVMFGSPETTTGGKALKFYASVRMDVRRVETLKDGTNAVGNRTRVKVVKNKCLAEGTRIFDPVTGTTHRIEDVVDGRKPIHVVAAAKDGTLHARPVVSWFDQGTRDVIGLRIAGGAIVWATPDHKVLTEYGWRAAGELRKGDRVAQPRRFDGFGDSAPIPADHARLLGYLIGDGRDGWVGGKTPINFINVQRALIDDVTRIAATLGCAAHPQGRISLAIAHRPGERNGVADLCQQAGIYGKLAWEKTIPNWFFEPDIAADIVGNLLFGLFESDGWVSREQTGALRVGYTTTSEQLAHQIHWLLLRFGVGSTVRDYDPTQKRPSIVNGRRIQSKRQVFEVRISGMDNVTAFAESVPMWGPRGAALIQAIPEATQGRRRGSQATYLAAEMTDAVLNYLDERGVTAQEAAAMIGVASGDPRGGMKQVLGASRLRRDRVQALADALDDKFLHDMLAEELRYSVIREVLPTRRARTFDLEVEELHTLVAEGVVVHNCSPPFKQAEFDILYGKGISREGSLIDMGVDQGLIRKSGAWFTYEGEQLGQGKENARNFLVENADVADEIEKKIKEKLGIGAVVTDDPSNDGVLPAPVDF
The assay can be described thus: Fluorescence Cell-Free Homogeneous Dose Retest to Identify Inhibitors of RecA-Intein Splicing Activity. [Related pubchem assays (depositor defined):AID2097, AID2223, AID489010, AID492950]. It is filed as functional.

The target in assay [7] is Neurotensin receptor type 1 (Homo sapiens, UniProt P30989). Type of assay: functional.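 Note: Image-based confirmatory dose-response assay measuring agonist activity at NTR1; NTR1-expressing U2OS osteosarcoma cells imaged for beta-arrestin GFP spot formation; agonist potency where compounds increase beta-arrestin recruitment.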
Chain of Neurotensin receptor type 1 (P30989 whole entry): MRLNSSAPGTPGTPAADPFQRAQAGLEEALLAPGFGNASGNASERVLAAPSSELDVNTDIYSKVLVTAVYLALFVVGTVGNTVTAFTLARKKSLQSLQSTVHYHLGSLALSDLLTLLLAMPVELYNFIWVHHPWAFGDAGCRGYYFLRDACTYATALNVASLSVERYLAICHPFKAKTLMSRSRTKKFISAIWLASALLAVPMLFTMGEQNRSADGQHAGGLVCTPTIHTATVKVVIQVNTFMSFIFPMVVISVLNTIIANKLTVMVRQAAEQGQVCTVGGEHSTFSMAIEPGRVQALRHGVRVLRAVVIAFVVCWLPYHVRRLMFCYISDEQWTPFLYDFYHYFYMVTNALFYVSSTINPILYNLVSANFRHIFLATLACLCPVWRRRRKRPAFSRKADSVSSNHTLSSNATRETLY
Assay [8] deals with T3, SUMO-activating enzyme (Homo sapiens, UniProt Q9UBT2). The assay can be described thus: blockers of UBC9-mediated SUMO conjugation – biochemical, AlphaScreen, SUMOylation inhibitor project, confirmation (AID 2018). Type of assay: functional.
T3 sequence (Q9UBE0 whole entry): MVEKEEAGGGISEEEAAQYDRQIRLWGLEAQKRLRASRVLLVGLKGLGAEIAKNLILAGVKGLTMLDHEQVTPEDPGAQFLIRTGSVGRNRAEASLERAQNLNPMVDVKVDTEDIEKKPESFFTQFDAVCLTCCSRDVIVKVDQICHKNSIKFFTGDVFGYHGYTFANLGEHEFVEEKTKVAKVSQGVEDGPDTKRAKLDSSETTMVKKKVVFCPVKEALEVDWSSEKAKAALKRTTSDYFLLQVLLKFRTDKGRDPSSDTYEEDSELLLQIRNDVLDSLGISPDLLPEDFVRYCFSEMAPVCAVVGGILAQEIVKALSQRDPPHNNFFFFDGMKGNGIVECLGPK
T3 sequence (Q9UBT2 whole entry): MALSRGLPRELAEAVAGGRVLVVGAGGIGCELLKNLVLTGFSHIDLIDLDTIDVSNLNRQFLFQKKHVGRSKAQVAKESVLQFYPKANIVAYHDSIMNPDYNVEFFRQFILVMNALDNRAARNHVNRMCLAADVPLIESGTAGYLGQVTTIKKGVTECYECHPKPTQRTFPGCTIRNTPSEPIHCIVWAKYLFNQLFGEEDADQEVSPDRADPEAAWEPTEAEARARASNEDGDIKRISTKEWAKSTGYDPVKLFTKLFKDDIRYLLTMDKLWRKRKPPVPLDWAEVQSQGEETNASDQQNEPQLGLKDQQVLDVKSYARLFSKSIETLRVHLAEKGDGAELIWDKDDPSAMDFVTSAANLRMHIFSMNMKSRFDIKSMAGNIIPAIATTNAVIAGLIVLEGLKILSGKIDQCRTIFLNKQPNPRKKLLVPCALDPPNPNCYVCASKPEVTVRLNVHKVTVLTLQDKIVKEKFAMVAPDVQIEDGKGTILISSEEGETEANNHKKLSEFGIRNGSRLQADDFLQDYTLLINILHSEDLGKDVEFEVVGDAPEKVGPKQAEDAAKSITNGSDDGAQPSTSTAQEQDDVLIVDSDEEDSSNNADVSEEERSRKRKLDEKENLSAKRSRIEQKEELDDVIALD
For assay [9], the target named is T3, SUMO-activating enzyme. The assay can be described thus: blockers of SAE1/SAE2–UBC9 SUMO transfer – biochemical, HTRF, uHTS, primary screen (AID 2006). It is filed as protein-complex assay.
Assay [10] in a line: viability of PTEN-deleted HCT116 cells – cell-based, HCT116 PTEN knockout, dose response (AID 1047).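 Note: HCT116 colon tumor cells with PTEN knocked out; cells exposed to compound for 60 hours before readout; potency for loss of cell viability measured by luminescence.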 Type of assay: functional.
Assay [11] in a line: viability of HCT116 lacking mutant beta-catenin – cell-based, human colon tumor, dose response (AID 1045).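 Note: HCT116 colon tumor cells with beta catenin knocked out; cells exposed to compound for 60 hours.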 It is filed as functional.

Activity calls are given as the source filed them.

Chain of Trypsin (P00761 whole entry): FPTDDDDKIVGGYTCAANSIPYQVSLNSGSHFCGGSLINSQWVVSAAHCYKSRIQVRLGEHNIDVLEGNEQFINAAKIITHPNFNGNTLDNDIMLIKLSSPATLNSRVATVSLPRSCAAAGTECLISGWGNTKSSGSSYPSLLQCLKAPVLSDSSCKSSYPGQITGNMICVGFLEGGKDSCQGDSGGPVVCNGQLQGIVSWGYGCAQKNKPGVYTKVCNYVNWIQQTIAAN

Take `CSC[C@H](NC(=O)COc1cc2c(c3oc(=O)cc(C)c13)CCC(C)(C)O2)C(=O)O`: the AC50 at Trypsin was 12 µM (active).

On to `CCSc1cc(N2CCCC2)nc(-c2ccc(Cl)cc2)n1`, for which the IC50 in the assay with MDA-MB-435 and in the assay “cells” was > 10 µM (inactive) throughout.

As for `Cc1n[nH]c2c1C(c1c(C)nn(-c3ccccc3)c1Cl)C(C#N)=C(N)O2` (stereo not given), the EC50 with HEK293 [1] was 1 µM (active); in [2] it was > 8 µM (not active); in the assay on HEK293 [3], > 8 µM (inactive); with HEK293 [4] it was 1.68 µM (active); at Protein RecA, 13.5 µM (active). The concentration at half-maximal activity (AC50) with HEK293 [5] was 7.01 µM (active); in assay [6], 14 µM (active).

`O=C(/C=C\c1ccccc1OC(=O)c1ccccc1F)c1cc2ccccc2o1`: in assay [7], the EC50 is 12 µM (active).

With `O=C(/C=C/c1ccco1)NC(=S)Nc1cc(-c2nc3ccccc3s2)ccc1Cl`, the IC50 on SUMO-activating enzyme [8] is 7.42 µM (active); on SUMO-activating enzyme [9], 26 µM (active). For the same molecule, the EC50 in assay [10] is 7.86 µM (active); in assay [11], 7.24 µM (active).
